# Values joined by “and” are separate entries in the source; they are usually repeats but may differ in a detail not shown here. Equal values may be shown once.
# Assays:
# [1] = Functional assay to measure dose dependent changes in cell viability from drug treatment in Vero E6 miRFP670 cells (cotreated with P-gp inhibitor, CP100356) that are infected with Dengue virus type 2 New Guinea C. […] Cytotoxicity is reported via via analysis of DAPI count using high-content imager. The assay has been performed by KU Leuven.; type: toxicity, cell-based, Vero C1008; details: chlorocebus sabaeus
# [2] = (§1) Functional CPE-based assay to measure dose dependent changes in cell viability from drug treatment in Vero E6 miRFP670 cells. Cells are treated with antiviral candidates that have been serially diluted. Cytotoxicity is reported via analysis of MTS assays in uninfected cells. The assay has been performed by KU Leuven.; type: toxicity, Vero C1008; details: chlorocebus sabaeus
# [3] = as §1, with “Huh-7” for “Vero E6 miRFP670”, “of MTT/” for “of”, “National Institute of Allergy and Infectious Diseases.” for “KU Leuven.”; type: toxicity; details: human
# [4] = Functional metabolic assay to measure dose dependent changes in cell viability from drug treatment in Vero E6/TMPRSS2 cells (cotreated with P-gp inhibitor, Elacridar). […] Cytotoxicity is reported via measuring absorbance and analysis of MTT/MTS assays in uninfected cells. The assay has been performed by Icahn School of Medicine at Mount Sinai.; type: toxicity, cell-based, VeroE6/TMPRSS2; details: chlorocebus sabaeus, p-gp concentration 2 uM
# [5] = Functional metabolic assay to measure dose dependent changes in cell viability from drug treatment in Vero E6/TMPRSS2 cells. Cells are treated with antiviral candidates that have been serially diluted. Cytotoxicity is reported via measuring absorbance and analysis of MTT/MTS assays in uninfected cells. The assay has been performed by Icahn School of Medicine at Mount Sinai.; type: toxicity, cell-based, VeroE6/TMPRSS2; details: chlorocebus sabaeus; for CC50: Vero E6/TMPRSS2 cells; for CC10: veroe6/tmprss2
# [6] = as §1, with “miRFP670 cells (cotreated with P-gp inhibitor, CP100356).” for “miRFP670 cells.”; type: toxicity, Vero C1008; details: chlorocebus sabaeus, Vero E6 miRFP670 cells, with CP100356 (P-gp inhibitor, concentration not stated)
# [7] = Functional assay to measure dose dependent changes in cell viability from drug treatment in Vero E6 miRFP670 cells that are infected with Dengue virus type 2 New Guinea C. Cells are treated with antiviral candidates that have been serially diluted. Cytotoxicity is reported via via analysis of DAPI count using high-content imager. The assay has been performed by KU Leuven.; type: toxicity, cell-based, Vero C1008; details: chlorocebus sabaeus
# [8] = as §1, with “metabolic” for “CPE-based”, “HeLa” for “Vero E6 miRFP670”, “MTT/MTS” for “MTS”; type: toxicity, cell-based; details: human
# [9] = vero c1008, p-gp concentration 500 nM
# [10] = with CP100356 (P-gp inhibitor, concentration not stated), p-gp concentration 500 nM
# [11] = Vero E6/TMPRSS2 cells, with Elacridar (P-gp inhibitor, concentration not stated)
Compound,"CC50 [1, 9]","CC50 [1, 10]",CC50 ([2]; Vero E6 miRFP670 cells),CC50 ([2]; vero c1008),CC50 [3],"CC50 [4, 11]",CC50 ([4]; veroe6/tmprss2),CC50 [5],CC10 [5],"CC50 ([1]; vero c1008, p-gp concentration 100 nM)",CC10 ([4]; veroe6/tmprss2),CC50 ([6]; p-gp concentration 100 nM),CC50 [7],CC50 ([8]; HeLa cells),CC10 ([8]; hela),CC50 ([6]; p-gp concentration 500 nM)
CC(C)CNC(=O)c1cc(Cl)c(F)cc1NS(=O)(=O)c1ccc(Oc2ccccc2Cl)cc1,5.35 µM,> 10 µM,4.96 µM,5.79 µM and 3.21 µM,3.1 µM,49.4 µM,38.1 µM,> 50 µM,> 50 µM,,,,,,,
O=C(Nc1ccc2c(c1)CNC2)c1cc(Cl)cc2[nH]ncc12,,,49.7 µM,> 50 µM,,< 0.023 µM,,,,5.47 µM,> 50 µM,> 50 µM,6.72 µM,,,
O=C(Nc1ccc2c(c1)CNC2)c1ccnc2[nH]ccc12,,,,,,,,,,,,,,> 50 µM,> 50 µM,
NCc1ccc(-c2ncc(OCC3CCNCC3)nc2-c2ccc(-c3ccoc3)cc2)cc1,,1.7 µM,,,5.5 µM,49.9 µM,,> 50 µM,> 50 µM,,39.762 µM,,,,,
COc1cc(N[C@@H](C(=O)c2c[nH]c3ccc(OC(F)(F)F)cc23)c2ccc(Cl)cc2OC)cc(S(C)(=O)=O)c1,,,,,5 µM,> 10 µM,,> 10 µM,> 10 µM,,,,,,,1.49 µM
CC(C)CNC(=O)c1cc(Cl)ccc1NS(=O)(=O)c1ccc(Oc2ccccc2Cl)cc1,,> 10 µM,4.76 µM,,6.5 µM,,> 50 µM,> 50 µM,> 50 µM,,,,,,,
c1cc(C2CCN(Cc3c[nH]c4ccccc34)CC2)c2ccncc2c1,> 50 µM,,,,32 µM,> 50 µM,,> 50 µM,> 50 µM,,> 50 µM,,,,,
